PMC12341765, “Microenvironment-triggered multimodal precision diagnostics” (Nature materials, 2021)

Legend:
MC26 CRC lung tumors [1] = test: 5-FU treatment of CRC lung disease model, monitored with PRISM (urine, PET-CT); assay type: in vivo, BALB/c mice; conditions: 5-FU 15 mg/kg i.p.
Procedure: 5-Fluorouracil (5-FU) was purchased (Sigma-Aldrich) and prepared as previously described.[47] 5-FU or vehicle control (DMSO) was administered by intraperitoneal injection at in a 0.2 mL volume starting 1 week after cell injection for metastasis-initiation experiments. A 15 mg/kg dose per treatment was used for all experiments. […] Experimental group sizes were practically associated according to the number of mice housed per cage (n=5 mice per cage). […] Tumor-bearing mice were closely monitored and euthanized following health-check advice given by an independent veterinary scientist responsible for animal welfare. […] Reconstructed PET and CT data were quantitatively evaluated using VivoQuant software (inviCRO Inc.). […] The radioactivity uptake values within CT-drawn organs were obtained from mean voxel values within the ROI and converted to percentage injected dose (ID) and then divided by mouse weight (g) to obtain an imaging ROI-derived percentage of the injected radioactive dose per gram of tissue (%ID/g). […] The tumor (or tissue) to tissue (i.e. lung to liver) ratio was calculated by dividing the mean lung by the mean liver %ID/g values. To quantify the radioactivity in diseased tissues ex vivo, tissues were harvested after perfusion with PBS and counts were collected using a 2480 WIZARD2 gamma counter (Perkin Elmer Inc.). […]

MC26 CRC lung tumors [2] = conditions: mouse, in vivo
LS 174T tumors = test: PET-CT imaging of low glucose uptake subcutaneous xenografts; design: species or system NCr nude mice; conditions: mouse, in vivo

Structure (SMILES) | relative lung/liver ratio of PET-CT signal, no-treatment cohort versus cohort treated with chemotherapy (MC26 CRC lung tumors [1]; two weeks of treatment, 64Cu-PRISM PET-CT) | effect on tumor progression compared with non-treated cohort (MC26 CRC lung tumors [1]; urinary reporter signal and PET imaging, after a single week) | background signal in the chest / heart accumulation on PET-CT (MC26 CRC lung tumors [2]) | tumor uptake versus background tissue (LS 174T tumors)
O=c1[nH]cc(F)c(=O)[nH]1 [5-FU, 5-Fluorouracil] | over 3 times | significantly inhibited tumor progression |  | 
OC[C@H]1OC(O)[C@H](F)[C@@H](O)[C@@H]1O (stereo partly shown) [18F-FDG, 18F-2-deoxyfluoroglucose] |  |  | strong accumulation in the heart | indistinguishable from the background tissue
